Measured values: patent publication US20240409585A1, “MACROCYCLIC IMMUNOMODULATORS” (priority 2021, published 2024)
One block for each compound: values may come before it. Bridge positions count the residues as written; N and C are the ends. Square brackets hold non-standard residues; d marks the D form. Peptide text beside a SMILES is read from it. * marks the point of attachment. ξ: configuration not given here. Phe(3-CF3) = N[C@@H](Cc1cccc(C(F)(F)F)c1)C(=O)O; Phe(4-COOH) = N[C@@H](Cc1ccc(C(=O)O)cc1)C(=O)O; Bip = N[C@@H](Cc1ccc(-c2ccccc2)cc1)C(=O)O; Phe(3-Me) = Cc1cccc(C[C@H](N)C(=O)O)c1; Bta = N[C@@H](Cc1csc2ccccc12)C(=O)O; Val(3-OH) = CC(C)(O)[C@H](N)C(=O)O; 4Pal = N[C@@H](Cc1ccncc1)C(=O)O; Cha = N[C@@H](CC1CCCCC1)C(=O)O; Cit = NC(=O)NCCC[C@H](N)C(=O)O; Ile(3ξ) = CCC(C)[C@H](N)C(=O)O; NMeD = CN[C@@H](CC(=O)O)C(=O)O; Thr(3ξ) = CC(O)[C@H](N)C(=O)O; Carboxymethyl = O=C(O)C*; NMeA = CN[C@@H](C)C(=O)O; Orn = NCCC[C@H](N)C(=O)O; Pra = C#CC[C@H](N)C(=O)O; Dab = NCC[C@H](N)C(=O)O; Dap = NC[C@H](N)C(=O)O; ξC = NC(CS)C(=O)O

Target: T1, PE-labeled human PD-L1-Ig binding to Jurkat cell line over-expressing human PD-1 (Jurkat-PD-1) (Homo sapiens, UniProt Q15116)
T1 construct: expressed in transfected cells; host or cells: Jurkat
Assay: Jurkat-PD-1 Cell Binding High-Content Screening Assay (CBA): Method 1
Settings: Jurkat-hPD-1 cells, PE-labeled PD-L1-Ig 20 nM final; read-out: Jurkat HPDL1 PD1 IC50 (uM) (Method 1)

T1 sequence (Q15116 25-288): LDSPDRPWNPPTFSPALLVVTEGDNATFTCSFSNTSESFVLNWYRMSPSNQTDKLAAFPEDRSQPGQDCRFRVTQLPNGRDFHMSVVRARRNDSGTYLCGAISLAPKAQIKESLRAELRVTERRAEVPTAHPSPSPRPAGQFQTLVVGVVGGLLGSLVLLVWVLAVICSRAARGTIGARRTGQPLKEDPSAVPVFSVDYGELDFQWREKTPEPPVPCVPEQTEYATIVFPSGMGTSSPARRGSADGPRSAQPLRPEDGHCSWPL

SMILES: CC(C)C[C@@H]1NC(=O)[C@H](Cc2c[nH]c3ccccc23)NC(=O)[C@H](CC(=O)O)NC(=O)[C@H](Cc2ccc(O)cc2)NC(=O)[C@H](Cc2ccccc2)NC(=O)CSC[C@@H](C(=O)N[C@@H](C)C(N)=O)NC(=O)[C@H](CO)NC(=O)[C@H](CCCCN)NC(=O)[C@H](CC(C)C)NC(=O)[C@H](CC(N)=O)NC(=O)[C@@H](C)NC(=O)[C@H](C)N(C)C(=O)[C@H](C(C)C)NC(=O)[C@H](Cc2ccc(-c3ccccc3)cc2)NC1=O [Compound 1529] ({CH2CO}-FYDWL[Bip]V[NMeA][dA]NLKSCA-NH2; thioether N-14)
IC50: 0.05 µM

SMILES: CC(C)C[C@@H]1NC(=O)[C@H](CCCNC(=N)N)NC(=O)[C@H](Cc2csc3ccccc23)NC(=O)[C@H](C)N(C)C(=O)[C@H](CCCNC(=N)N)NC(=O)[C@H](Cc2ccc(-c3ccccc3)cc2)NC(=O)[C@H](C(C)C)NC(=O)[C@H](Cc2c[nH]c3ccccc23)NC(=O)[C@H](CC(=O)O)NC(=O)[C@H](Cc2ccc(O)cc2)NC(=O)[C@H](CCC(N)=O)NC(=O)CSC[C@@H](C(=O)NCC(N)=O)NC(=O)[C@H](CO)NC(=O)[C@H](C(C)C)NC1=O [Compound 1028] ({CH2CO}-QYDWV[Bip]R[NMeA][Bta]RLVSCG-NH2; thioether N-14)
IC50: 0.11 µM

SMILES: CC[C@H](C)[C@@H]1NC(=O)[C@H](Cc2ccc(-c3ccccc3)cc2)NC(=O)[C@H](C(C)C)NC(=O)[C@H](Cc2c[nH]c3ccccc23)NC(=O)[C@H](CC(=O)O)NC(=O)[C@H](Cc2ccc(O)cc2)NC(=O)[C@H](CN)NC(=O)CSC[C@@H](C(=O)N[C@@H](C)C(N)=O)NC(=O)[C@H]([C@@H](C)O)NC(=O)[C@H](C(C)C)NC(=O)[C@H](CC(C)C)NC(=O)[C@H](CCN)NC(=O)[C@@H](CC(C)C)NC(=O)[C@H](C)N(C)C1=O [Compound 1414] ({CH2CO}-[Dap]YDWV[Bip]I[NMeA][dL][Dab]LVTCA-NH2; thioether N-14)
IC50: 0.1 µM

SMILES: CC(C)C[C@@H]1NC(=O)[C@H](C(C)C)NC(=O)[C@H](Cc2ccccc2)NC(=O)[C@H](CC(=O)O)N(C)C(=O)[C@H](CCCNC(=N)N)NC(=O)[C@H](Cc2ccc(-c3ccccc3)cc2)NC(=O)[C@H](C(C)C)NC(=O)[C@H](Cc2c[nH]c3ccccc23)NC(=O)[C@H](CC(=O)O)NC(=O)[C@H](Cc2ccc(O)cc2)NC(=O)[C@H](Cc2ccccc2)NC(=O)CSC[C@@H](C(=O)NCC(N)=O)NC(=O)[C@H](CO)NC(=O)[C@H](C(C)C)NC1=O [Compound 1008] ({CH2CO}-FYDWV[Bip]R[NMeD]FVLVSCG-NH2; thioether N-14)
IC50: 0.7 µM

SMILES: CC(C)C[C@@H]1NC(=O)[C@H](CCN)NC(=O)[C@@H](CC(C)C)NC(=O)[C@H](C)N(C)C(=O)[C@H](CCCN)NC(=O)[C@H](Cc2ccc(-c3ccccc3)cc2)NC(=O)[C@H](C(C)C)NC(=O)[C@H](Cc2c[nH]c3ccccc23)NC(=O)[C@H](CC(=O)O)NC(=O)[C@H](Cc2ccc(O)cc2)NC(=O)[C@H](CC(N)=O)NC(=O)CSC[C@@H](C(=O)N[C@@H](C)C(N)=O)NC(=O)[C@H]([C@@H](C)O)NC(=O)[C@H](C(C)C)NC1=O [Compound 1266] ({CH2CO}-NYDWV[Bip][Orn][NMeA][dL][Dab]LVTCA-NH2; thioether N-14)
IC50: 0.03 µM

SMILES: CCC(C)[C@@H]1NC(=O)[C@H](Cc2ccc(-c3ccccc3)cc2)NC(=O)[C@H](C(C)C)NC(=O)[C@H](Cc2c[nH]c3ccccc23)NC(=O)[C@H](CC(=O)O)NC(=O)[C@H](Cc2ccc(O)cc2)NC(=O)[C@H](Cc2ccncc2)NC(=O)CSC[C@@H](C(=O)N[C@@H](C)C(N)=O)NC(=O)[C@H](C(C)O)NC(=O)[C@H](CCN)NC(=O)[C@H](CC(C)C)NC(=O)[C@H](CC(N)=O)NC(=O)[C@@H](CC(C)C)NC(=O)[C@H](C)N(C)C1=O (stereo partly drawn) [Compound 2060] ({CH2CO}-[4Pal]YDWV[Bip][Ile(3ξ)][NMeA][dL]NL[Dab][Thr(3ξ)]CA-NH2; thioether N-14)
IC50: 0.28 µM

SMILES: CC(C)C[C@@H]1NC(=O)[C@H](CCN)NC(=O)[C@@H](CC(C)C)NC(=O)[C@H](C)N(C)C(=O)[C@H](CCCNC(N)=O)NC(=O)[C@H](Cc2ccc(-c3ccccc3)cc2)NC(=O)[C@H](C(C)C)NC(=O)[C@H](Cc2c[nH]c3ccccc23)NC(=O)[C@H](CC(=O)O)NC(=O)[C@H](Cc2ccc(O)cc2)NC(=O)[C@H](CCC(N)=O)NC(=O)CSC[C@@H](C(=O)N[C@@H](C)C(N)=O)NC(=O)[C@H]([C@@H](C)O)NC(=O)[C@H](C(C)C)NC1=O [Compound 1357] ({CH2CO}-QYDWV[Bip][Cit][NMeA][dL][Dab]LVTCA-NH2; thioether N-14)
IC50: 0.06 µM

SMILES: CC(C)C[C@@H]1NC(=O)[C@H](CC(N)=O)NC(=O)[C@@H](CC(C)C)NC(=O)[C@H](C)N(C)C(=O)[C@H](CCC(=O)O)NC(=O)[C@H](Cc2ccc(-c3ccccc3)cc2)NC(=O)[C@H](C(C)C)NC(=O)[C@H](Cc2c[nH]c3ccccc23)NC(=O)[C@H](CC(=O)O)NC(=O)[C@H](Cc2ccc(O)cc2)NC(=O)[C@H](Cc2ccncc2)NC(=O)CSC[C@@H](C(N)=O)NC(=O)[C@H]([C@@H](C)O)NC(=O)[C@H](C(C)C)NC1=O [Compound 1631] ({CH2CO}-[4Pal]YDWV[Bip]E[NMeA][dL]NLVTC-NH2; thioether N-14)
IC50: 0.11 µM

SMILES: CC(C)C[C@@H]1NC(=O)[C@H](CCCNC(=N)N)NC(=O)[C@@H](CC(C)C)NC(=O)[C@H](C)N(C)C(=O)[C@H](CCCNC(=N)N)NC(=O)[C@H](Cc2ccc(-c3ccccc3)cc2)NC(=O)[C@H](C(C)C)NC(=O)[C@H](Cc2cccc(C(F)(F)F)c2)NC(=O)[C@H](CC(=O)O)NC(=O)[C@H](Cc2ccc(O)cc2)NC(=O)[C@H](CC(N)=O)NC(=O)CSC[C@@H](C(=O)N[C@@H](C)C(N)=O)NC(=O)[C@H]([C@@H](C)O)NC(=O)[C@H](C(C)C)NC1=O [Compound 1198] ({CH2CO}-NYD[Phe(3-CF3)]V[Bip]R[NMeA][dL]RLVTCA-NH2; thioether N-14)
IC50: 0.06 µM

The remaining lines, values ahead:

IC50: 0.02 µM
SMILES: C#CC[C@H](NC(=O)[C@@H](C)NC(=O)[C@@H]1CSCC(=O)N[C@@H](Cc2ccc(OCC(=O)O)cc2)C(=O)N[C@@H](Cc2ccc(C(=O)O)cc2)C(=O)N[C@@H](CC(=O)O)C(=O)N[C@@H](Cc2c[nH]c3ccccc23)C(=O)N[C@@H](CC(C)C)C(=O)N[C@@H](Cc2ccc(-c3ccccc3)cc2)C(=O)N[C@@H](C(C)C)C(=O)N(C)[C@@H](C)C(=O)N[C@H](CC(C)C)C(=O)N[C@@H](CCN)C(=O)N[C@@H](CC2CCCCC2)C(=O)N[C@@H](C(C)(C)O)C(=O)N[C@@H](CO)C(=O)N1)C(N)=O [Compound 1940] ({CH2CO}-Y(Carboxymethyl)[Phe(4-COOH)]DWL[Bip]V[NMeA][dL][Dab][Cha][Val(3-OH)]SC[dA][Pra]-NH2; thioether N-14)

IC50: 0.04 µM
SMILES: CCC(C)[C@@H]1NC(=O)[C@H](Cc2ccc(-c3ccccc3)cc2)NC(=O)[C@H](CC2CCCCC2)NC(=O)[C@H](Cc2c[nH]c3ccccc23)NC(=O)[C@H](CC(=O)O)NC(=O)[C@H](Cc2ccc(OCC(=O)O)cc2)NC(=O)[C@H](C(C)O)NC(=O)CSC[C@@H](C(=O)N[C@@H](CC(N)=O)C(=O)O)NC(=O)[C@H](CO)NC(=O)[C@H](C(C)C)NC(=O)[C@H](CC(C)C)NC(=O)[C@H](CCN)NC(=O)[C@@H](CC(C)C)NC(=O)[C@H](C)N(C)C1=O (stereo partly drawn) [Compound 2223] ({CH2CO}-[Thr(3ξ)]Y(Carboxymethyl)DW[Cha][Bip][Ile(3ξ)][NMeA][dL][Dab]LVSCN-OH; thioether N-14)

IC50: 0.04 µM
SMILES: CC(C)C[C@@H]1NC(=O)[C@H](CCN)NC(=O)[C@@H](CC(C)C)NC(=O)[C@H](C)N(C)C(=O)[C@H](CCCNC(N)=O)NC(=O)[C@H](Cc2ccc(-c3ccccc3)cc2)NC(=O)[C@H](C(C)C)NC(=O)[C@H](Cc2c[nH]c3ccccc23)NC(=O)[C@H](CC(=O)O)NC(=O)[C@H](Cc2ccc(OCC(=O)O)cc2)NC(=O)[C@H](CN)NC(=O)CSC[C@@H](C(=O)N[C@@H](C)C(N)=O)NC(=O)[C@H]([C@@H](C)O)NC(=O)[C@H](C(C)C)NC1=O [Compound 1566] ({CH2CO}-[Dap]Y(Carboxymethyl)DWV[Bip][Cit][NMeA][dL][Dab]LVTCA-NH2; thioether N-14)

IC50: 0.03 µM
SMILES: Cc1cccc(C[C@@H]2NC(=O)[C@H](CC(=O)O)NC(=O)[C@H](Cc3ccc(OCC(=O)O)cc3)NC(=O)[C@H](CN)NC(=O)CSC[C@@H](C(N)=O)NC(=O)[C@H](CCCN)NC(=O)[C@H](C(C)C)NC(=O)[C@H](CC3CCCCC3)NC(=O)[C@H](CCN)NC(=O)[C@@H](CC(C)C)NC(=O)[C@H](C)N(C)C(=O)[C@H](Cc3ccc(OCC(=O)O)cc3)NC(=O)[C@H](Cc3ccc(-c4ccccc4)cc3)NC(=O)[C@H](Cc3ccc(OCC(=O)O)cc3)NC2=O)c1 [Compound 1646] ({CH2CO}-[Dap]Y(Carboxymethyl)D[Phe(3-Me)]Y(Carboxymethyl)[Bip]Y(Carboxymethyl)[NMeA][dL][Dab][Cha]V[Orn]C-NH2; thioether N-14)

IC50: 0.02 µM
SMILES: CC(C)C[C@@H]1NC(=O)[C@H](CCN)NC(=O)[C@@H](CC(C)C)NC(=O)[C@H](C)N(C)C(=O)[C@H](C(C)C)NC(=O)[C@H](Cc2ccc(-c3ccccc3)cc2)NC(=O)[C@H](C(C)C)NC(=O)[C@H](Cc2c[nH]c3ccccc23)NC(=O)[C@H](CC(=O)O)NC(=O)[C@H](Cc2ccc(OCC(=O)O)cc2)NC(=O)[C@H](Cc2ccc(OCC(=O)O)cc2)NC(=O)CSC[C@@H](C(=O)N[C@@H](C)C(N)=O)NC(=O)[C@H]([C@@H](C)O)NC(=O)[C@H](C(C)C)NC1=O [Compound 1567] ({CH2CO}-Y(Carboxymethyl)Y(Carboxymethyl)DWV[Bip]V[NMeA][dL][Dab]LVTCA-NH2; thioether N-14)

IC50: 0.02 µM
SMILES: CCC(C)[C@@H]1NC(=O)[C@H](Cc2ccc(-c3ccccc3)cc2)NC(=O)[C@H](C(C)C)NC(=O)[C@H](Cc2c[nH]c3ccccc23)NC(=O)[C@H](CC(=O)O)NC(=O)[C@H](Cc2ccc(O)cc2)NC(=O)[C@H](Cc2ccncc2)NC(=O)CSCC(C(=O)N[C@@H](CCCN)C(=O)O)NC(=O)[C@H](C(C)O)NC(=O)[C@H](C(C)C)NC(=O)[C@H](CC2CCCCC2)NC(=O)[C@H](CC(N)=O)NC(=O)[C@@H](CC(C)C)NC(=O)[C@H](C)N(C)C1=O (stereo partly drawn) [Compound 2214] ({CH2CO}-[4Pal]YDWV[Bip][Ile(3ξ)][NMeA][dL]N[Cha]V[Thr(3ξ)][ξC][Orn]-OH; thioether N-14)
